Source: patent publication US4469868A, “Alkylimidazo[1,2-c]pyrazolo[3,4-e]pyrimidines” (Warner-Lambert Company, priority 1982, dated 1984)
Where a name gives a salt, the structure may show the parent alone. Read-outs that look alike come from different tables or passages of the source.

What was measured:
[1] = conditioned avoidance-escape procedure (modified pole-climb avoidance); assay type: in vivo; conditions: oral, male Wistar rat
Protocol: In order to further assess their usefulness, representative compounds of the invention were tested in a conditioned avoidance-escape procedure. In this test*, an animal (male Wistar rat) is conditioned to respond to a stimulus in order to avoid an unpleasant electrical shock. Should the animals fail to give the response in order to avoid the shock, an escape route is available so that it can escape the shock once it is delivered. Preferably, compounds will show variations between the dose that will supress conditioned avoidance and the dose that will suppress the escape response.
*Modification of the pole-climb avoidance paradigm described in Ann. NY Acad. Sci., 740, (1957).

[2] = Mouse Activity and Screen Test Procedure (MAST): inhibition of spontaneous locomotion and inverted screen test; assay type: in vivo, Swiss-Webster male mice; conditions: ip, 1 h, intraperitoneal, one hour prior to testing, mice, locomotion over 60 minutes, read-out: Dose at which an overall dose rating of A was obtained
Excerpt: The compound of the invention are new chemical substances which are useful as pharmaceutical agents for the treatment of psychoses. The antipsychotic activity of representative compounds of the invention was established by the Mouse Activity and Screen Test Procedure (MAST) described below.
ANIMALS: Nine unfasted Swiss-Webster male mice (Buckberg Labs) weighing 20-30 g are equally divided into three groups for each drug dose to be tested. That is, data for each dose level was generated by three separate groups of three mice each.
DRUGS: A minimum of three dose levels (10, 30, and 100 mg/kg) are tested for each drug. Treatments are administered intraperitoneally one hour prior to testing. All dosages are calculated as parent compound and given in volumes of […]. Compounds are dissolved or suspended in 0.2% Methocel. Control animals are injected with Methocel.
TESTING: A two part testing procedure is started one hour postinjection. First, the screen test is performed (see Pharmac. Biochem. Behav. 6, 351-353, 1977). Briefly this test consists of placing mice on individual wire screens which are then rotated 180 degrees at the start of a 60-second observation period. The number of mice falling off the inverted screen is recorded.
Immediately following the screen test, the final phase of testing is initiated by placing each group of three mice in one actophotometer (Life Sciences, 22, 1067-1076, 1978). The actophotometer consists of a cylindrical chamber whose center is occupied by another cylinder which contains the illumination for six photocells located on the perimeter of the chamber. Six light-beam interruptions equal one count. Locomotor activity is recorded by computer at 10-minute intervals for 60 minutes.
DATA: The data obtained from the screen test are expressed as percent of mice falling off the screen. Data derived from locomotor activity of drug treated mice are compared to the activity of vehicle treated animals and are expressed as percent inhibition of spontaneous locomotion. All percentages reported for inhibition of locomotion are based upon data accumulated for one hour. Both phases of testing are graded: A=60-100%; C=31-59%; and N=0-30%. An overall dose rating is obtained by the following criteria: […]
Utilizing this procedure, an overall dose rating of A was obtained for the noted compound at the indicated dose as reported in Table 1.

[3] = as above; assay type: in vivo, Swiss-Webster male mice; conditions: po, Compound administered orally, mice, read-out: Dose at which an overall dose rating of A was obtained
[4] = suppression of conditioned avoidance, read-out: Oral ED50 Avoidance
[5] = suppression of escape response, read-out: Oral ED50 Escape

SMILES | ED50 [1, 4] [mg/kg] | ED50 [1, 5] [mg/kg] | minimal effective dose [2] [mg/kg] | minimal effective dose [3] [mg/kg]
CC1=Nc2c(C)nn(C)c2C2=NC(C)CN12 (racemic) [R1=CH3, R2=CH3, R3=CH3, R4=H, R5=CH3 (Racemate), 7,8-dihydro-1,3,5,8-tetramethyl-1H-imidazo[1,2-c]pyrazolo[3,4-e]pyrimidine] | 10 | 32 | – | –
Cc1nn(C)c2c1N=C(C1CC1)N1CC(C)N=C21 (centres unmarked) [5-Cyclopropyl-7,8-dihydro-1,3,8-trimethyl-1H-imidazo[1,2-c]pyrazolo[3,4-e]pyrimidine] | 11.5 | 110 | 100 | –
CCc1nc2c(C)nn(C)c2c2nc(C)cn12 [5-Ethyl-1,3,8-trimethyl-1H-imidazo[1,2-c]pyrazolo[3,4-e]pyrimidine] | 8 | 45 | – | –
CCC1=Nc2c(C)nn(CC)c2C2=NC(C)CN12 (centres unmarked) [R1=C2H5, R2=CH3, R3=C2H5, R4=H, R5=CH3, 1,5-Diethyl-7,8-dihydro-3,8-dimethyl-1H-imidazo[1,2-c]pyrazolo[3,4-e]pyrimidine] | 9 | 50 | 100 | –
CCn1nc(C)c2c1C1=NC(C)CN1C(C)=N2 (centres unmarked) [R1=C2H5, R2=CH3, R3=CH3, R4=H, R5=CH3, 7,8-Dihydro-1-ethyl-3,5,8-trimethyl-1H-imidazo[1,2-c]pyrazolo[3,4-e]pyrimidine] | 5 | 15 | – | –
CCn1nc(C)c2c1C1=NCCN1C(C)=N2 [R1=C2H5, R2=CH3, R3=CH3, R4=H, R5=H, 1-Ethyl-7,8-dihydro-3,5-dimethyl-1H-imidazo[1,2-c]pyrazolo[3,4-e]pyrimidine] | 10 | 28 | – | –
CC1=Nc2c(C)nn(CC(F)(F)F)c2C2=NC(C)CN12 (centres unmarked) [R1=CF3CH2, R2=CH3, R3=CH3, R4=H, R5=CH3, 7,8-Dihydro-3,5,8-trimethyl-1-(2,2,2-trifluoroethyl)-1H-imidazo[1,2-c]pyrazolo[3,4-e]pyrimidine] | – | – | 100 | –
CCC1=Nc2c(C)nn(C)c2C2=NCC(C)N12 (centres unmarked) [R1=CH3, R2=CH3, R3=C2H5, R4=CH3, R5=H, 7,8-Dihydro-5-ethyl-1,3,7-trimethyl-1H-imidazo[1,2-c]pyrazolo[3,4-e]pyrimidine] | 35 | 52 | 100 | –
CCC1=Nc2c(C)nn(C)c2C2=NC(C)CN12 (centres unmarked) [R1=CH3, R2=CH3, R3=C2H5, R4=H, R5=CH3, 7,8-Dihydro-5-ethyl-1,3,8-trimethyl-1H-imidazo[1,2-c]pyrazolo[3,4-e]pyrimidine] | 6.4 | 66 | – | –
CCC1=Nc2c(C)nn(C)c2C2=NCCN12 [R1=CH3, R2=CH3, R3=C2H5, R4=H, R5=H, 5-Ethyl-7,8-dihydro-1,3-dimethyl-1H-imidazo[1,2-c]pyrazolo[3,4-e]pyrimidine] | – | – | – | 90
CC1=Nc2c(C)nn(C)c2C2=NCC(C)(C)N12 [R1=CH3, R2=CH3, R3=CH3, R4=(CH3)2, R5=H2, 7,8-Dihydro-1,3,5,7,7-pentamethyl-1H-imidazo[1,2-c]pyrazolo[3,4-e]pyrimidine] | 32 | 80 | – | –
CC1=Nc2c(C)nn(C)c2C2=NC(C)C(C)N12 (centres unmarked) [R1=CH3, R2=CH3, R3=CH3, R4=CH3, R5=CH3, 7,8-dihydro-1,3,5,7,8-pentamethyl-1H-imidazo[1,2-c]pyrazolo[3,4-e]pyrimidine] | 20 | 57 | 100 | –
CC1=Nc2c(C)nn(C)c2C2=NC(C)(C)CN12 [R1=CH3, R2=CH3, R3=CH3, R4=H2, R5=(CH3)2, 7,8-Dihydro-1,3,5,8,8-pentamethyl-1H-imidazo[1,2-c]pyrazolo[3,4-e]pyrimidine] | 18 | 120 | – | –
CCC1CN2C(C)=Nc3c(C)nn(C)c3C2=N1 (centres unmarked) [R1=CH3, R2=CH3, R3=CH3, R4=H, R5=C2H5, 8-ethyl-7,8-dihydro-1,3,5-trimethyl-1H-imidazo[1,2-c]pyrazolo[3,4-e]pyrimidine] | 7.5 | 32 | – | –
CC1=Nc2c(C)nn(C)c2C2=N[C@H](C)CN12 [R1=CH3, R2=CH3, R3=CH3, R4=H, R5=CH3 (R-isomer), 7,8-Dihydro-1,3,5-trimethyl-1H-imidazo[1,2-c]-pyrazolo[3,4-e]pyrimidine (R-form)] | < 65 | < 65 | – | –
CC1=Nc2c(C)nn(C)c2C2=N[C@@H](C)CN12 [R1=CH3, R2=CH3, R3=CH3, R4=H, R5=CH3 (S-isomer), 7,8-Dihydro-1,3,5,8-tetramethyl-1H-imidazo[1,2-c]pyrazolo[3,4-e]pyrimidine (S-form)] | 11.5 | 20 | 100 | –
CC1=Nc2c(C)nn(C)c2C2=N[C@@H](C(C)C)CN12 [R1=CH3, R2=CH3, R3=CH3, R4=H, R5=i-C3H7 (S-isomer), 7,8-Dihydro-8-isopropyl-1,3,5-trimethyl-1H-imidazo[1,2-c]pyrazolo[3,4-e]pyrimidine dihydrochloride (S-form)] | 20 | 70 | 100 | –
Cc1nn(C)c2c1N=CN1CC(C)N=C21 (centres unmarked) [R1=CH3, R2=CH3, R3=H, R4=H, R5=CH3, 7,8-Dihydro-1,3,8-trimethyl-1H-imidazo[1,2-c]pyrazolo[3,4-e]pyrimidine] | 18 | 56 | 100 | –
Cc1nn(C)c2c1N=CN1CCN=C21 [R1=CH3, R2=CH3, R3=H, R4=H, R5=H, 7,8-Dihydro-1,3-dimethyl-1H-imidazo[1,2-c]pyrazolo [3,4-e]pyrimidine] | 18 | 54 | 100 | –
CCCn1nc(C)c2c1C1=NC(C)CN1C(C)=N2 (centres unmarked) [R1=n-C3H7, R2=CH3, R3=CH3, R4=H, R5=CH3, 7,8-Dihydro-3,5,8-trimethyl-1-n-propyl-1H-imidazo[1,2-c]pyrazolo[3,4-e]pyrimidine] | 37 | 90 | 100 | –
